# From US4620014A, “2-furylbutyrolactones and methods for using same” (priority 1983, dated 1986)
# Where two headings read alike, the source gives them in different places.
# Key:
# [1] = tested on: spleen lymphocytes of BDF1 mice; conditions: 7 days
# Procedure: (§1) The purpose of this assay is to challenge lymphocytes in microcultures with one or more polyclonal mitogens at concentrations that will induce mitogenesis within 72 hours of stimulation.
# (§2) In the mouse model, spleens are removed from different strains of mice and the spleen cells are teased free and suspended in RPMI-1640 tissue culture medium at a concentration of usually 1×10^7 ml. These cells are dispensed at a concentration of 5.0×10^5 cells per microculture well in a 96 well flat bottom 96 well tissue culture plate. All testing of the compounds of this invention or mitogens are done in replicates of 10. The cells are then treated with PHA, Con-A, specific antigens, or buffer only. If in vitro testing is done, varying concentrations of the compounds of this invention or buffer only are added to the cells as well. After treatment with the mitogens and/or compounds of this invention, the cells are incubated for 72 hours. The response of these cells to mitogens and/or the compounds of this invention is assessed using ^14 C-thymidine labeling on the fourth day at a concentration of 0.01 μCi/well. The labeled cells are harvested using a lymphocyte harvestor and placed onto fibrous paper discs. A scintillation cocktail is added to vials contaning the discs and the results are obtained using a LKB-liquid scintillation counter (Model 1216/Rackbeta II). The data is expressed as a ratio of the cpm of the mitogen stimulated group to the control (non-mitogen) treated group=lymphocyte stimulation index (LSI).
# The lymphocyte stimulation assay may be performed directly on spleen cells obtained from various strains of mice not treated with the compounds of this invention or on lymphocytes obtained from […]. […] Alternatively, the mice may be treated in vivo with the compounds of this invention by intraperitoneal multi-dose schedules, followed by sacrifice and harvesting spleen lymphocytes. These cells are then tested for their response to polyclonal mitogens or specific antigens used to immunize the mice. In this sytem however, no additional compound is added to the in vitro lymphocyte stimulation assay system.
# Two strains of mice, C57BL/6 and BDF1 are treated for seven days with i.p. administration of either 25, 50, 100, 200, or 400 mg/kg of Cpd. 1 or just buffer. This is followed on the eighth day by a lymphocyte stimulation assay.
# [2] = tested on: spleen lymphocytes of BALB/C mice; conditions: 4 days
# Procedure: as §1
# as §2, with “A scintillation cocktail is added to vials contaning the discs and the results are obtained using a LKB-liquid scintillation counter (Model 1216/Rackbeta II).” left out, “(LSI). […]” for “(LSI).”
# [3] = tested on: spleen lymphocytes of BSA-immunized C57BL/6 mice
# From the text: (§3) The effect of the compounds of this invention on the immune response to specific antigens involves immunization of mice with specific anitgens such as bovine serum albumin (BSA) or keyhole limpet hemocyanin (KLH). Following immunization, it is possible to assess the cell-mediated or humoral (antibody) immune response to these antigens by various methods:
# (§4) (1) Lymphocyte stimulation assays can be performed using varying concentrations of the specific antigens as mitogens in the lymphocyte stimulation microculture system described above. The only difference is that the incubation period is extended to five days instead of three as for the polyclonal mitogens.
# Mice of the C57BL/6 strain are given i.p. injections of either 50, 100, 200 or 400 mg/kg of Cpd. 1 or buffer for twelve days (days 1-12). An antigen, bovine serum albumin (BSA), is administered intraperitoneally with Freund's Complete Adjuvant (FCA) on days 1, 7 and 14. Blood samples are taken for assay of the antibody response on days 0, 5, 13, and 19.
# [4] = tested on: spleen lymphocytes of KLH-immunized C57BL/6 mice; conditions: for Lymphocyte Stimulation Index, Con-A / Lymphocyte Stimulation Index, Control (no mitogen) / Lymphocyte Stimulation Index, PHA: day 17
# From the text: as §3, §4
# Mice of the C57BL/6 strain are given i.p. injections of either 50, 100, 200 or 400 mg/kg of Cpd. 1 or buffer for ten days (days 1-10). An antigen, keyhole limpet hemocyanin (KLH), is administered intraperitoneally with Freund's Complete Adjuvant (FCA) on days 1, 7, and 13. Blood samples are taken for assay of the antibody response on days 0, 5, 12, and 17. Spleens are removed, lymphocytes isolated and a lymphocyte stimulation assay with PHA, Con-A or KLH antigen as the mitogens is performed on day 17 of the experiment.
compound,measurement,setting,value
Cc1ccc(C2(O)C(=O)OC3C(O)COC32O)o1.Cc1ccc(C2(O)C(=O)OC3C(O)COC32O)o1.O=C1CCC(=O)O1 (centres unmarked) [Cpd. 1],Con-A response,[1]; 400 mg/kg i.p.,slight suppression of the Con-A response
same,PHA response,[1]; 400 mg/kg i.p.,strong suppression of the PHA response
same,"T-lymphocyte proliferation, PHA",[1]; 50 and 100 mg/kg i.p.,stimulation of T-lymphocyte proliferation
same,Con-A response,[1]; between 50 and 100 mg/kg i.p.,significantly increased
same,DNA synthesis of spleen cell lymphocytes,"[2]; 400 mg/kg, compared to 200 mg/kg",suppress DNA synthesis
same,"lymphocyte DNA synthesis, PHA and Con-A","[2]; 50, 100 and 200 mg/kg i.p.",tend to stimulate lymphocyte DNA synthesis
same,Lymphocyte Stimulation Index,"[3]; 50 mg/kg i.p., day 13, BSA 0 μg/well",16.5
same,Lymphocyte Stimulation Index,"[3]; 50 mg/kg i.p., day 13, BSA 0.01 μg/well",19.9
same,Lymphocyte Stimulation Index,"[3]; 50 mg/kg i.p., day 13, BSA 0.1 μg/well",23.1
same,Lymphocyte Stimulation Index,"[3]; 50 mg/kg i.p., day 13, BSA 0.5 μg/well",22.9
same,Lymphocyte Stimulation Index,"[3]; 50 mg/kg i.p., day 13, BSA 1 μg/well",18.2
same,Lymphocyte Stimulation Index,"[3]; 50 mg/kg i.p., day 19, BSA 0 μg/well",.26
same,Lymphocyte Stimulation Index,"[3]; 50 mg/kg i.p., day 19, BSA 0.01 μg/well",2.33
same,Lymphocyte Stimulation Index,"[3]; 50 mg/kg i.p., day 19, BSA 0.1 μg/well",2.27
same,Lymphocyte Stimulation Index,"[3]; 50 mg/kg i.p., day 19, BSA 0.5 μg/well",2.37
same,Lymphocyte Stimulation Index,"[3]; 50 mg/kg i.p., day 19, BSA 1.0 μg/well",2.63
same,DNA synthesis compared to controls,"[3]; 50 mg/kg, day 13",significant stimulation of DNA synthesis
same,DNA synthesis effect,"[3]; 50 mg/kg, day 19",waned
same,Lymphocyte Stimulation Index,"[3]; 100 mg/kg i.p., day 13, BSA 0 μg/well",3.22
same,Lymphocyte Stimulation Index,"[3]; 100 mg/kg i.p., day 13, BSA 0.01 μg/well",9.8
same,Lymphocyte Stimulation Index,"[3]; 100 mg/kg i.p., day 13, BSA 0.1 μg/well",11.9
same,Lymphocyte Stimulation Index,"[3]; 100 mg/kg i.p., day 13, BSA 0.5 μg/well",12.3
same,Lymphocyte Stimulation Index,"[3]; 100 mg/kg i.p., day 13, BSA 1 μg/well",10.2
same,Lymphocyte Stimulation Index,"[3]; 100 mg/kg i.p., day 19, BSA 0 μg/well",4.1
same,Lymphocyte Stimulation Index,"[3]; 100 mg/kg i.p., day 19, BSA 0.01 μg/well",3.79
same,Lymphocyte Stimulation Index,"[3]; 100 mg/kg i.p., day 19, BSA 0.1 μg/well",2.68
same,Lymphocyte Stimulation Index,"[3]; 100 mg/kg i.p., day 19, BSA 0.5 μg/well",2.03
same,Lymphocyte Stimulation Index,"[3]; 100 mg/kg i.p., day 19, BSA 1.0 μg/well",.26
same,Lymphocyte Stimulation Index,"[3]; 200 mg/kg i.p., day 13, BSA 0 μg/well",10.6
same,Lymphocyte Stimulation Index,"[3]; 200 mg/kg i.p., day 13, BSA 0.01 μg/well",14.1
same,Lymphocyte Stimulation Index,"[3]; 200 mg/kg i.p., day 13, BSA 0.1 μg/well",15.8
same,Lymphocyte Stimulation Index,"[3]; 200 mg/kg i.p., day 13, BSA 0.5 μg/well",13.8
same,Lymphocyte Stimulation Index,"[3]; 200 mg/kg i.p., day 13, BSA 1 μg/well",14.0
same,Lymphocyte Stimulation Index,"[3]; 200 mg/kg i.p., day 19, BSA 0 μg/well",0.42
same,Lymphocyte Stimulation Index,"[3]; 200 mg/kg i.p., day 19, BSA 0.01 μg/well",2.94
same,Lymphocyte Stimulation Index,"[3]; 200 mg/kg i.p., day 19, BSA 0.1 μg/well",2.82
same,Lymphocyte Stimulation Index,"[3]; 200 mg/kg i.p., day 19, BSA 0.5 μg/well",2.56
same,Lymphocyte Stimulation Index,"[3]; 200 mg/kg i.p., day 19, BSA 1.0 μg/well",2.12
same,Lymphocyte Stimulation Index,"[3]; 400 mg/kg i.p., day 13, BSA 0 μg/well",10.9
same,Lymphocyte Stimulation Index,"[3]; 400 mg/kg i.p., day 13, BSA 0.01 μg/well",13.7
same,Lymphocyte Stimulation Index,"[3]; 400 mg/kg i.p., day 13, BSA 0.1 μg/well",12.8
same,Lymphocyte Stimulation Index,"[3]; 400 mg/kg i.p., day 13, BSA 0.5 μg/well",12.3
same,Lymphocyte Stimulation Index,"[3]; 400 mg/kg i.p., day 13, BSA 1 μg/well",13.8
same,Lymphocyte Stimulation Index,"[3]; 400 mg/kg i.p., day 19, BSA 0 μg/well",5.0
same,Lymphocyte Stimulation Index,"[3]; 400 mg/kg i.p., day 19, BSA 0.01 μg/well",3.26
same,Lymphocyte Stimulation Index,"[3]; 400 mg/kg i.p., day 19, BSA 0.1 μg/well",2.89
same,Lymphocyte Stimulation Index,"[3]; 400 mg/kg i.p., day 19, BSA 0.5 μg/well",1.94
same,Lymphocyte Stimulation Index,"[3]; 400 mg/kg i.p., day 19, BSA 1.0 μg/well",1.04
same,"Lymphocyte Stimulation Index, Con-A",[4]; 50 mg/kg i.p.,19.0
same,"Lymphocyte Stimulation Index, Control (no mitogen)",[4]; 50 mg/kg i.p.,0.976
same,"Lymphocyte Stimulation Index, PHA",[4]; 50 mg/kg i.p.,7.65
same,"Lymphocyte Stimulation Index, KLH","[4]; 50 mg/kg i.p., day 17, KLH 0.025 μg/well",0.0386
same,"Lymphocyte Stimulation Index, KLH","[4]; 50 mg/kg i.p., day 17, KLH 0.5 μg/well (first 0.5 column)",0.415
same,"Lymphocyte Stimulation Index, KLH","[4]; 50 mg/kg i.p., day 17, KLH 0.5 μg/well (second 0.5 column)",0.357
same,"Lymphocyte Stimulation Index, KLH","[4]; 50 mg/kg i.p., day 17, KLH 1.0 μg/well",0.536
same,"Lymphocyte Stimulation Index, Con-A",[4]; 100 mg/kg i.p.,15.6
same,"Lymphocyte Stimulation Index, Control (no mitogen)",[4]; 100 mg/kg i.p.,0.961
same,"Lymphocyte Stimulation Index, PHA",[4]; 100 mg/kg i.p.,9.12
same,"Lymphocyte Stimulation Index, KLH","[4]; 100 mg/kg i.p., day 17, KLH 0.025 μg/well",0.401
same,"Lymphocyte Stimulation Index, KLH","[4]; 100 mg/kg i.p., day 17, KLH 0.5 μg/well (first 0.5 column)",0.734
same,"Lymphocyte Stimulation Index, KLH","[4]; 100 mg/kg i.p., day 17, KLH 0.5 μg/well (second 0.5 column)",0.526
same,"Lymphocyte Stimulation Index, KLH","[4]; 100 mg/kg i.p., day 17, KLH 1.0 μg/well",0.898
same,"Lymphocyte Stimulation Index, Con-A",[4]; 200 mg/kg i.p.,51.7
same,"Lymphocyte Stimulation Index, Control (no mitogen)",[4]; 200 mg/kg i.p.,1.73
same,"Lymphocyte Stimulation Index, PHA",[4]; 200 mg/kg i.p.,12.4
same,"Lymphocyte Stimulation Index, KLH","[4]; 200 mg/kg i.p., day 17, KLH 0.025 μg/well",3.91
same,"Lymphocyte Stimulation Index, KLH","[4]; 200 mg/kg i.p., day 17, KLH 0.5 μg/well (first 0.5 column)",4.26
same,"Lymphocyte Stimulation Index, KLH","[4]; 200 mg/kg i.p., day 17, KLH 0.5 μg/well (second 0.5 column)",1.02
same,"Lymphocyte Stimulation Index, KLH","[4]; 200 mg/kg i.p., day 17, KLH 1.0 μg/well",7.45
same,lymphocyte DNA synthesis,"[4]; 200 mg/kg, day 17, Con-A or KLH",statistically significant increase in lymphocyte DNA synthesis
same,"Lymphocyte Stimulation Index, Con-A",[4]; 400 mg/kg i.p.,35.5
same,"Lymphocyte Stimulation Index, Control (no mitogen)",[4]; 400 mg/kg i.p.,0.840
same,"Lymphocyte Stimulation Index, PHA",[4]; 400 mg/kg i.p.,2.32
same,"Lymphocyte Stimulation Index, KLH","[4]; 400 mg/kg i.p., day 17, KLH 0.025 μg/well",1.03
same,"Lymphocyte Stimulation Index, KLH","[4]; 400 mg/kg i.p., day 17, KLH 0.5 μg/well (first 0.5 column)",0.232
same,"Lymphocyte Stimulation Index, KLH","[4]; 400 mg/kg i.p., day 17, KLH 0.5 μg/well (second 0.5 column)",0.667
same,"Lymphocyte Stimulation Index, KLH","[4]; 400 mg/kg i.p., day 17, KLH 1.0 μg/well",0.589
